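The concentration for 50% growth inhibition is given as GI50. TGI denotes the concentration required for complete inhibition of growth.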
Experiments:
Test in all cases: inhibition of tumour cell growth, NCI panel, 384-well format
A498 renal = system: A498 renal
A549 NSCLC = system: A549 NSCLC
ACHN renal = system: ACHN renal
BT-549 breast = system: BT-549 breast
CAKI-1 renal = system: CAKI-1 renal
COLO 205 colon = system: COLO 205 colon
DU-145 prostate = system: DU-145 prostate
EKVX NSCLC = system: EKVX NSCLC
HCC-2998 colon = system: HCC-2998 colon
HCT-116 colon = system: HCT-116 colon
HCT-15 colon = system: HCT-15 colon
HL-60(TB) leukemia = system: HL-60(TB) leukemia
HOP-62 NSCLC = system: HOP-62 NSCLC
HOP-92 NSCLC = system: HOP-92 NSCLC
HS 578T breast = system: HS 578T breast
HT29 colon = system: HT29 colon
IGROV1 ovarian = system: IGROV1 ovarian
KM12 colon = system: KM12 colon
LOX IMVI melanoma = system: LOX IMVI melanoma
M14 melanoma = system: M14 melanoma
MALME-3M melanoma = system: MALME-3M melanoma
MCF7 breast = system: MCF7 breast
MDA-MB-231 breast = system: MDA-MB-231 breast
MDA-MB-435 melanoma = system: MDA-MB-435 melanoma
MDA-MB-468 breast = system: MDA-MB-468 breast
MOLT-4 leukemia = system: MOLT-4 leukemia
NCI-H226 lung = system: NCI-H226 lung
NCI-H23 lung = system: NCI-H23 lung
NCI-H322M lung = system: NCI-H322M lung
NCI-H460 NSCLC = system: NCI-H460 NSCLC
NCI-H522 lung = system: NCI-H522 lung
NCI/ADR-RES ovarian = system: NCI/ADR-RES ovarian
OVCAR-3 ovarian = system: OVCAR-3 ovarian
OVCAR-4 ovarian = system: OVCAR-4 ovarian
OVCAR-5 ovarian = system: OVCAR-5 ovarian
OVCAR-8 ovarian = system: OVCAR-8 ovarian
PC-3 prostate = system: PC-3 prostate
RPMI-8226 leukemia = system: RPMI-8226 leukemia
RXF 393 renal = system: RXF 393 renal
SF-268 CNS = system: SF-268 CNS
SF-295 CNS = system: SF-295 CNS
SF-539 CNS = system: SF-539 CNS
SK-MEL-28 melanoma = system: SK-MEL-28 melanoma
SK-MEL-5 melanoma = system: SK-MEL-5 melanoma
SK-OV-3 ovarian = system: SK-OV-3 ovarian
SN12C renal = system: SN12C renal
SNB-19 CNS = system: SNB-19 CNS
SNB-75 CNS = system: SNB-75 CNS
SR leukemia = system: SR leukemia
T-47D breast = system: T-47D breast
TK-10 renal = system: TK-10 renal
U251 glioblastoma = system: U251 glioblastoma
UACC-257 melanoma = system: UACC-257 melanoma
UACC-62 melanoma = system: UACC-62 melanoma

Work on `CC(C)C[C@H](NC(=O)[C@@H](NC(=O)c1cccc(-c2ccccc2)n1)[C@@H](C)O)B(O)O` yielded a GI50 (A498 renal) of 312 nM, a TGI (A498 renal) of 1850 nM and a GI50 (A549 NSCLC) of 1080 nM. The TGI (A549 NSCLC) was 16300 nM, the GI50 (ACHN renal) was 239 nM and the TGI (ACHN renal) was 957 nM. The GI50 (BT-549 breast) was 139 nM, the TGI (BT-549 breast) was 288 nM and the GI50 (CAKI-1 renal) was 492 nM. It also gave a TGI (CAKI-1 renal) of 19000 nM, a GI50 (COLO 205 colon) of 442 nM and a TGI (COLO 205 colon) greater than 100000 nM. It also gave a GI50 (DU-145 prostate) of 432 nM, a TGI (DU-145 prostate) of 1760 nM and a GI50 (EKVX NSCLC) of 523 nM. It also gave a TGI (EKVX NSCLC) of 2850 nM, a GI50 (HCC-2998 colon) of 141 nM and a TGI (HCC-2998 colon) of 371 nM. It also gave a GI50 (HCT-116 colon) of 160 nM, a TGI (HCT-116 colon) of 347 nM and a GI50 (HCT-15 colon) of 556 nM. For the same molecule, the TGI (HCT-15 colon) was 1880 nM, the GI50 (HL-60(TB) leukemia) was 77.6 nM and the TGI (HL-60(TB) leukemia) was 198 nM. For the same molecule, the GI50 (HOP-62 NSCLC) was 237 nM, the TGI (HOP-62 NSCLC) was 765 nM and the GI50 (HOP-92 NSCLC) was 432 nM. For the same molecule, the TGI (HOP-92 NSCLC) was 1890 nM, the GI50 (HS 578T breast) was 143 nM and the TGI (HS 578T breast) was 294 nM. For the same molecule, the GI50 (HT29 colon) was 127 nM, the TGI (HT29 colon) was 274 nM and the GI50 (IGROV1 ovarian) was 560 nM. For the same molecule, the TGI (IGROV1 ovarian) was 2120 nM, the GI50 (KM12 colon) was 346 nM and the TGI (KM12 colon) was 1280 nM. For the same molecule, the GI50 (LOX IMVI melanoma) was 216 nM, the TGI (LOX IMVI melanoma) was 507 nM and the GI50 (M14 melanoma) was 163 nM. The TGI (M14 melanoma) was 305 nM, the GI50 (MALME-3M melanoma) was 104 nM and the TGI (MALME-3M melanoma) was 239 nM. For the same molecule, the GI50 (MCF7 breast) was 129 nM, the TGI (MCF7 breast) was 10700 nM and the GI50 (MDA-MB-231 breast) was 327 nM. For the same molecule, the TGI (MDA-MB-231 breast) was 1280 nM, the GI50 (MDA-MB-435 melanoma) was 163 nM and the TGI (MDA-MB-435 melanoma) was 305 nM. For the same molecule, the GI50 (MDA-MB-468 breast) was 168 nM, the TGI (MDA-MB-468 breast) was 405 nM and the GI50 (MOLT-4 leukemia) was 21.8 nM. It also gave a TGI (MOLT-4 leukemia) of 56.4 nM, a GI50 (NCI-H226 lung) of 11.4 nM and a TGI (NCI-H226 lung) of 103 nM. It also gave a GI50 (NCI-H23 lung) of 292 nM, a TGI (NCI-H23 lung) of 1190 nM and a GI50 (NCI-H322M lung) of 2030 nM. It also gave a TGI (NCI-H322M lung) of 11800 nM, a GI50 (NCI-H460 NSCLC) of 426 nM and a TGI (NCI-H460 NSCLC) of 1550 nM. The GI50 (NCI-H522 lung) was 122 nM, the TGI (NCI-H522 lung) was 249 nM and the GI50 (NCI/ADR-RES ovarian) was 11100 nM. It also gave a TGI (NCI/ADR-RES ovarian) of 24500 nM, a GI50 (OVCAR-3 ovarian) of 103 nM and a TGI (OVCAR-3 ovarian) of 228 nM. For the same molecule, the GI50 (OVCAR-4 ovarian) was 210 nM, the TGI (OVCAR-4 ovarian) was 569 nM and the GI50 (OVCAR-5 ovarian) was 260 nM. It also gave a TGI (OVCAR-5 ovarian) of 940 nM, a GI50 (OVCAR-8 ovarian) of 374 nM and a TGI (OVCAR-8 ovarian) of 1520 nM. The GI50 (PC-3 prostate) was 257 nM, the TGI (PC-3 prostate) was 685 nM and the GI50 (RPMI-8226 leukemia) was 11.2 nM. The TGI (RPMI-8226 leukemia) was 26 nM, the GI50 (RXF 393 renal) was 147 nM and the TGI (RXF 393 renal) was 297 nM. For the same molecule, the GI50 (SF-268 CNS) was 266 nM, the TGI (SF-268 CNS) was 787 nM and the GI50 (SF-295 CNS) was 374 nM. It also gave a TGI (SF-295 CNS) of 1540 nM, a GI50 (SF-539 CNS) of 165 nM and a TGI (SF-539 CNS) of 308 nM. It also gave a GI50 (SK-MEL-28 melanoma) of 89.1 nM, a TGI (SK-MEL-28 melanoma) of 240 nM and a GI50 (SK-MEL-5 melanoma) of 129 nM. For the same molecule, the TGI (SK-MEL-5 melanoma) was 285 nM, the GI50 (SK-OV-3 ovarian) was 560 nM and the TGI (SK-OV-3 ovarian) was 11000 nM. The GI50 (SN12C renal) was 123 nM, the TGI (SN12C renal) was 422 nM and the GI50 (SNB-19 CNS) was 234 nM. For the same molecule, the TGI (SNB-19 CNS) was 870 nM, the GI50 (SNB-75 CNS) was 297 nM and the TGI (SNB-75 CNS) was 1260 nM. The TGI (SR leukemia) was 221 nM, the GI50 (T-47D breast) was 224 nM and the TGI (T-47D breast) was 783 nM. For the same molecule, the GI50 (TK-10 renal) was 157 nM, the TGI (TK-10 renal) was 418 nM and the GI50 (U251 glioblastoma) was 420 nM. For the same molecule, the TGI (U251 glioblastoma) was 1940 nM, the GI50 (UACC-257 melanoma) was 116 nM and the TGI (UACC-257 melanoma) was 245 nM. The GI50 (UACC-62 melanoma) was 291 nM and the TGI (UACC-62 melanoma) was 1160 nM.

Source: PubChem BioAssay (NCI)
